Source: patent US20070219154A1, “Methods for preventing and/or treating a cell proliferative disorder” (priority 2005, published 2007)

Legend:
Type in all cases: cell-based, human
[1] = system: glioma cancer cell line SF295; test: Soft agar assay, SF295
Protocol: (§1) Cell proliferation was ascertained by soft agar assay. In brief, cells were grown within a matrix of 1.2% soft agar that contained PAR-1 inhibitor at the appropriate concentration. Plates containing cells in the soft agar were incubated at 37° C. for approximately 2 weeks until cell colonies were visible. Cells were then stained by adding 1 mg/ml MTT in PBS and incubating at 37° C. for 1-2 hours. After which the staining solution was removed and plates incubated at 4° C. for 1-2 hours to resolidify agar before scanning.

[2] = system: pancreatic cancer cell line MiaPaCa2; test: Soft agar assay, MiaPaCa2
Protocol: as §1

glioma cell line SNB19 = test: Intracellular Ca2+ release (FLIPR) assay, SNB19; conditions: thrombin 0.1-100 nM, FIG. 14
Protocol: (§2) As detailed below, intracellular Ca^2+ release was measured in various tumor cell lines treated with thrombin. Likewise, intracellular Ca^2+ release was measured in a subset of those tumor cell lines treated with thrombin and PAR-1 inhibitor Formula 2. In brief, cells were plated into a 96-well plate at a density of 4×10^4 cells per well and allowed to attach overnight at 37° C. prior to loading with Fluo-4AM. Cells were then incubated at 37° C. for 60 minutes. After washing the cells, thrombin as well as the appropriate concentration of PAR-1 inhibitor Formula 2 was added and cells incubated at 37° C. for 30 minutes prior to taking fluorescence readings.

[3] = system: pancreatic cancer cell line Panc1; test: Calcein AM assay, Panc1; conditions: 3 days, FIG. 18
Protocol: (§3) Viability of cells was ascertained using the LIVE/DEAD Viability/Cytotoxicity calcein AM assay [Molecular Probes, technical bulletin MP03224] in the pancreatic cell line MiaPaCa2 and the pancreatic cancer cell line Panc1 following treatment with thrombin, or PAR-1 inhibitor in the presence or absence of thrombin (at a concentration of 10 nM). Calcein AM is a cell-permeant nonflouroescent molecule which is cleaved by esterases found within live cells to create the intensely fluorescent calcein. The polyanionic dye calcein is retained within live cells, producing an intense uniform green fluorescence which can be measured by a fluorescent multiwell plate reader to determine the actual number of live cells in each well. In brief, 1×10^4 cells per well were plated into a 96-well plate and allowed to attach overnight at 37° C. prior to treatment with serum-free media containing 10 nM thrombin as well as the appropriate concentration of PAR-1 inhibitor Formula 2 (5×10^−9; 1×10^−8; 5×10^−8; 1×10^−7; 5×10^−7; 1×10^−6; 5×10^−6; or 1×10^−5 M). Cells were then incubated at 37° C. for 3 days prior to adding Calcein AM reagent and reading fluorescence.

glioma cell line T98G = test: Intracellular Ca2+ release (FLIPR) assay, T98G; conditions: thrombin 0.1-100 nM, FIG. 14
Protocol: as §2

[4] = system: prostate cancer cell line PC-3; test: Intracellular Ca2+ release (FLIPR) assay, PC-3; conditions: thrombin 0.1-100 nM, FIG. 14
Protocol: as §2

[5] = system: ovarian cancer cell line SKOV-3; test: Intracellular Ca2+ release (FLIPR) assay, SKOV-3; conditions: thrombin 0.1-100 nM, FIG. 14
Protocol: as §2

[6] = system: pancreatic cancer cell line MiaPaCa2; test: Intracellular Ca2+ release (FLIPR) assay, MiaPaCa2; conditions: thrombin 0.1-100 nM, FIG. 14
Protocol: as §2

[7] = system: pancreatic cell line MiaPaCa2; test: Calcein AM assay, MiaPaCa2; conditions: 3 days, FIG. 18
Protocol: as §3

glioma cell line U118MG = test: Intracellular Ca2+ release (FLIPR) assay, U118MG; conditions: thrombin 0.1-100 nM, FIG. 14
Protocol: as §2

[8] = system: pancreatic cancer cell line MiaPaCa2; test: 14C-thymidine incorporation assay, MiaPaCa2; conditions: 48 hours
Protocol: (§4) Cell growth proliferation was ascertained by measuring ^14C-thymidine incorporation in various cell lines treated with thrombin in the presence or absence of a PAR-1 inhibitor. In brief, 5×10^3 cells per well were seeded in a 96-well plate and incubated at 37° C. for 1 day. The cells were starved with serum-free medium for 1 day prior to treatment with serum-free media containing 0.5 μCi/ml ^14C-thymidine as well as PAR-1 inhibitor and/or thrombin (where applicable). The cells were then incubated at 37° C. for 48 hours prior to reading radioactivity on a beta counter (1450 Microbeta Plus, Liquid Scintillation Counter (Wallac Software, Perkin Elmer) using the program for ^14C counting on 96-well Cytostar-T scintillating microplate (Amersham Pharmacia Biotech, Piscataway, N.J.).

glioma cell line U373 [9] = test: 14C-thymidine incorporation assay, U373; conditions: thrombin 0.001-1000 nM, 48 hours, FIG. 16
Protocol: as §4

glioma cell line U373 [10] = test: Intracellular Ca2+ release (FLIPR) assay, U373; conditions: thrombin 0.1-100 nM, FIG. 14
Protocol: as §2

glioma cell line SF295 = test: Intracellular Ca2+ release (FLIPR) assay, SF295; conditions: thrombin 0.1-100 nM, FIG. 14
Protocol: as §2

## CCOC(=O)N[C@@H]1CC[C@@H]2[C@@H](C1)C[C@H]1C(=O)O[C@H](C)[C@H]1[C@H]2/C=C/c1ccc(-c2ccccc2C#N)cn1 [Formula 3]
[1]; 0-30,000 nM, dose-dependent manner
  inhibition of cell proliferation (soft agar assay): inhibited
[1]; Homo sapiens, SF-295, 336 h, approximately 2 weeks, FIG. 21, read-out: IC50, cell proliferation (soft agar assay)
  IC50: 6.1 µM
[1]; at higher doses
  anti-proliferative effects: modest
[2]; 0-10,000 nM, dose-dependent manner
  inhibition of cell proliferation (soft agar assay): inhibited
[2]; Homo sapiens, MIA PaCa-2, 336 h, approximately 2 weeks, FIG. 20, read-out: IC50, cell proliferation (soft agar assay)
  IC50: 5.2 µM
[2]; at higher doses
  anti-proliferative effects: modest

## thrombin
Glioma cell line SNB19
  intracellular Ca2+ release stimulated by thrombin: stimulates
[3]
  thrombin-induced cell proliferation (calcein AM): minimal
Glioma cell line T98G
  intracellular Ca2+ release stimulated by thrombin: stimulates
[4]
  intracellular Ca2+ release stimulated by thrombin: stimulates
[5]
  intracellular Ca2+ release stimulated by thrombin: stimulates
[6]
  intracellular Ca2+ release stimulated by thrombin: stimulates
[7]
  thrombin-induced cell proliferation (calcein AM): dose-dependent
Glioma cell line U118MG
  intracellular Ca2+ release stimulated by thrombin: stimulates
[8]; read-out: EC50 of thrombin, cell proliferation (14C-thymidine incorporation)
  EC50: 0.014 nM
[8]; thrombin 10^-4 to 10^2 nM, FIG. 17
  thrombin-induced cell proliferation (14C-thymidine incorporation): dose-dependent
Glioma cell line U373 [9]
  thrombin-induced cell proliferation (14C-thymidine incorporation): dose-dependent
Glioma cell line U373 [10]
  intracellular Ca2+ release stimulated by thrombin: stimulates
Glioma cell line SF295
  intracellular Ca2+ release stimulated by thrombin: stimulates
